Where two headings read alike, the source gives them in different places.
How the values were obtained:
adult patients with TRD = conditions: for depression rating based on mean PHQ-9 depression scores: "severe" at baseline, HBr after 2 weeks; for side effect: anxiety / side effect: gastrointestinal upset / side effect: insomnia: in vivo
Excerpt: In the regular course of Applicants' general outpatient psychiatry practice, Applicants see many patients who suffer from Major Depressive Disorder (MDD) and may not have responded to two or more oral antidepressant medications. Applicants routinely administer the brief and commonly used Patient Health Questionnaire-9 (PHQ-9) scale before starting a new treatment, two weeks after starting treatment to measure initial response, and periodically thereafter.
Once-daily, XL bupropion HCl received FDA approval for the treatment of MDD in 2003 and for Seasonal Affective Disorder (SAD) in 2006.
The following study protocol was approved by the WCG-IRB institutional ethics committee and conducted in accordance with principles set forth in the Helsinki Declaration. […] The PHQ-9 is a reliable and valid clinical and research tool that measures functionality and depression severity, whereby scores of 5, 10, 15, and 20 correspond to mild, moderate, moderately severe, and severe depression and a 5-point change is considered clinically meaningful. Statistical analysis was performed using a within-subject, 2-tailed t-test with a significance level of p<0.05.

[1] = APLENZIN 348 mg once-daily, 10-day dosing; cited from earlier work
[2] = test system: patients having Major Depressive Disorder who also suffer from Treatment Resistant Depression; assay: Example 2: phase III double-blind active control Treatment Resistant Major Depressive Disorder study (MADRS), sequential HCl then HBr; type: in vivo, human; conditions: N=50
Method: A phase III double-blind study is conducted on a subset of patients having Major Depressive Disorder who also suffer from Treatment Resistant Depression. Exclusion criteria for this study are any patients suffering from seizures, known hypersensitivity to bupropion, eating disorders, schizophrenia or bipolar disorder. Inclusion criteria for this study are adult patients ages 18 through 64 who have taken two oral antidepressants of adequate dose and duration in the current episode of Major Depressive Disorder. The study includes a total of fifty patients (N=50). Initially, all patients are given a two-week washout from a previous oral antidepressant or are not currently taking an oral antidepressant. The patients are administered once daily bupropion HCl XL 150 mg, which is flexibly dosed to 300 mg by day 4 and 450 mg by day 11, to the extent required for treatment response and/or as tolerated. The treatment is continued for a total of six weeks. After six weeks, there is a five-day bupropion HCl XL washout. Next, the patients are administered once daily bupropion HBr XL 174 mg, which is flexibly dosed to 348 mg by day 4 and 522 mg by day 11, to the extent required for treatment response and/or as tolerated. This part of the study is continued for a total of six weeks. Measures are assessed based on weekly changes on the Montgomery Asberg Depression Rating Scale (MADRS) from baseline on bupropion HCl compared to bupropion HBr. Also, side effects leading to discontinuation on bupropion HCl compared to bupropion HBr are considered. The primary endpoint of the study is significant change in MADRS by week 6 on bupropion HBr compared to bupropion HCl. A secondary endpoint is statistically significant change in MADRS by week 2 on bupropion HBr compared to bupropion HCl.

[3] = test system: patients having Major Depressive Disorder who also suffer from Treatment Resistant Depression; assay: Example 3: study similar to Example 2 with two arms of 25 patients; type: in vivo, human; conditions: 25 patients per arm
Method: A similar study to that of Example 2 is also conducted, except that the 50 patients are broken into two arms—one arm of 25 patients taking bupropion HCl XL and the other arm of 25 patients taking bupropion HBr XL.

Structure (SMILES) | depression rating based on mean PHQ-9 depression scores (adult patients with TRD; 30 adult TRD patients) | mean PHQ-9 score on XL bupropion HCl (adult patients with TRD; 30 adult TRD patients, mean dose 300 mg/day (range 150-450 mg/day), mean duration 88.8 weeks, PHQ-9 range 0-27, baseline 20.9±4.3) | side effect: anxiety (adult patients with TRD; both, human) | side effect: gastrointestinal upset (adult patients with TRD; both, human) | side effect: insomnia (adult patients with TRD; both, human) | peak plasma concentration and area under the curve vs bupropion HCl extended-release 300 mg (bioequivalence) [1] | mean PHQ-9 score on XL bupropion HBr (adult patients with TRD; 30 adult TRD patients, after 2 weeks on mean dose 348 mg/day (range 174-522 mg/day) after direct switch from XL bupropion HCl, t=-8.63, p<0.00001 vs HCl) | change in PHQ-9 questions (1), (3), (4), (5) and (7) on XL bupropion HBr compared to XL bupropion HCl (adult patients with TRD; all patients in the study of Example 1, each question rated 0 to 3) | side effect: anxiety (adult patients with TRD) | side effect: gastrointestinal upset (adult patients with TRD) | patient preference over the combination of bupropion HCl plus dextromethorphan (adult patients with TRD; subgroup of five patients who had previously failed the combination, due to improved antidepressant efficacy) | side effects leading to discontinuation compared to bupropion HCl [2] | efficacy in TRD (MADRS change) compared to bupropion HCl ([2]; 174-522 mg once daily, six weeks) | speed of effect compared to bupropion HCl ([2]; MADRS by week 2) | results of two-arm study compared to bupropion HCl XL [3]
CC(NC(C)(C)C)C(=O)c1cccc(Cl)c1.Cl (racemic) [XL bupropion HCl, (±)-1-(3-chlorophenyl)-2-[(1,1-dimethylethyl)amino]-1-propanone hydrochloride] | moderately severe (Scores of 15-19 indicate moderately severe depression) | 15.3±5.3 | 19 patients | 2 patients | 21 patients |  |  |  |  |  |  |  |  |  | 
Br.CC(NC(C)(C)C)C(=O)c1cccc(Cl)c1 (centres unmarked) [XL bupropion HBr, bupropion hydrobromide] | mild (Scores of 5-9 indicate mild depression) |  |  |  | 3 patients | equivalent | 6.4±5.0 | improving by at least one point | resolved | resolved | All five patients in this subgroup preferred once-daily XL bupropion HBr | fewer side effects leading to discontinuation | more effective | works faster | same as in Example 2

From patent US12303473B1 (priority 2023, dated 2025)
